Experimental findings from patent US20220146526A1, “METHOD FOR EVALUATING SAMPLE, ANALYSIS METHOD, METHOD FOR DETECTING DEGRADED SAMPLE, MARKER FOR DETECTING DEGRADED BLOOD PLASMA SAMPLE, AND MARKER FOR DETECTING DEGRADED SERUM SAMPLE” (SHIMADZU CORPORATION, priority 2019, published 2022) are described below.

Common to all, as to assay type: physicochemical, human
A short description of data set [1]: LC/MS of blood plasma sample: time from blood collection to centrifugation (Table D). As to conditions: for Rate of increase or decrease: detection intensity relative to 1 at 15 minutes; for Rate of increase or decrease / Increase or decrease: blood collection to centrifugation; for Increase or decrease: detection intensity. The essentials: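 Healthy-subject blood (5 mL, EDTA) cooled and held at 4 °C before centrifugation (4 °C, 3000 rpm, 15 min), with plasma then frozen. LC/MS on Discovery HS F5-3 column at 40 °C, 0.1% formic acid water/acetonitrile, 0.25 mL/min, electrospray, MRM; intensities relative to 15 min collection-to-centrifugation set as 1.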

Data set [2] in a line: LC/MS of blood plasma sample: number of times of freezing and thawing (Table F). As to conditions: for Rate of increase or decrease: detection intensity relative to 1 at 2 times; for Increase or decrease: detection intensity. The method, boiled down:
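Human blood from a healthy subject drawn into EDTA tubes, cooled to 4° C within 1 min or after ≥5 min, centrifuged at 4° C, 3000 rpm, 15 min. Plasma frozen, then freeze-thawed 2, 4, 6 or 10 times and analysed by LC/MS (ESI, MRM). Intensities expressed relative to 2 freeze-thaw cycles set as 1.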

Data set [3] is described as follows: LC/MS of blood plasma sample: time from blood collection to cooling of blood (Table E). Also noted: key to Rate of increase or decrease / Rate of increase or decrease (first value, increase): detection intensity relative to ≤1 min to cooling = 1. The note with it: for Rate of increase or decrease: detection intensity relative to 1 at 1 minute or less, blood collection to cooling 5 minutes; for Increase or decrease: detection intensity, blood collection to cooling 5 minutes or more vs 1 minute or less. As to the method: At room temperature, 5 mL of blood from a healthy subject was taken into a blood-collecting vessel containing EDTA, and the blood-collecting vessel was inverted for mixing, then cooled, and allowed to stand at 4° C. Here, in order to investigate how the detection intensity of molecules contained in the sample was affected in a case where the time to cooling was set to 5 minutes or more as compared to that in a case where the time to cooling was set to 1 minute or less, preparations were performed under both the former condition and the latter condition. After standing, the blood sample was subjected to centrifugation under a condition of 4° C., 3000 rpm, and 15 minutes. […] After centrifugation, the blood-collecting vessel was left to stand at room temperature for 30 minutes, and the blood plasma was isolated during this 30 minutes. The obtained blood plasma sample was frozen and stored. Here, in order to investigate how the detection intensity of molecules contained in the sample was affected in cases where freezing and thawing was performed 4 times, 6 times, and 10 times after freezing as compared to that in a case where freezing and thawing was performed 2 times after freezing, freezing and thawing was performed under the respective conditions of 2, 4, 6, and 10 times.
Frozen blood plasma samples and serum samples were subjected to GC/MS or LC/MS. In GC/MS, the blood plasma samples and serum samples were subjected to methoxymation and trimethylsilylation and then introduced to GC-MS.
Analysis column: Discovery HS F5-3 (inner diameter of 2.1 mm, length of 150 mm, film thickness of 3 μm) (Sigma-Aldrich)
Column temperature: 40° C.
(A) 0.1% formic acid (dissolved in water)
(B) 0.1% formic acid (dissolved in acetonitrile)
Flow velocity: 0.25 mL/min
Ionization method: electrospray
Temperature: • Desolvation Line (DL) temperature: 250° C. • Heat block temperature: 400° C. • Interface temperature: 300° C.
Gas flow rate: • Nebulizer gas flow rate: 3.0 L/min • Drying gas flow rate: 10.0 L/min • Heating gas flow rate: 10.0 L/min
Mode: multiple reaction monitoring (MRM)
The rate of increase or decrease in Table E is the value of detection intensity relative to 1 that is the detection intensity in a case where the time from blood collection to cooling is set to 1 minute or less.

Data set [4] can be described thus: LC/MS of serum sample: number of times of freezing and thawing (Table M). Also noted: key to Rate of increase or decrease: detection intensity relative to 1 at 2 freeze-thaw cycles. The essentials:
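Serum was isolated at room temperature after centrifugation at room temperature, 3500 rpm, 5 minutes, then frozen and freeze-thawed 2, 4, 6 or 10 times. LC/MS used a Discovery HS F5-3 column at 40° C with formic acid water/acetonitrile, electrospray MRM. Intensity is relative to 2 freeze-thaw cycles.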

Setting [5] is: freezing and thawing 4 times vs 2 times.

In the case of `NCCCC(=O)O` [4-Aminobutyric acid], the “Rate of increase or decrease” value is 0.70 in data set [1] (after 6 hours); 1.76 in data set [2] (freezing and thawing 4 times); 1.50 in data set [3]. Also, the Increase or decrease entry in data set [1] (after 6 hours vs 15 minutes) is listed as “Decrease”; in data set [2] (setting [5]), “Increase”; in data set [3], “Increase”.

With `N[C@@H](CCC(=O)N[C@@H](CS)C(=O)O)C(=O)O` [5-Glutamylcysteine], the Increase or decrease entry is “Different from individual” in data set [1] (after 4 hours vs 15 minutes), “Increase” in data set [2] (setting [5]) and “Increase” in data set [3]. For the same compound, the “Rate of increase or decrease (second value, decrease)” value in data set [1] (different from individual to individual, individuals with decrease, relative to 1 at 15 minutes, collection to centrifugation, after 4 hours) is 0.70. Besides, the “Rate of increase or decrease (first value, increase)” value in data set [1] (different from individual to individual, individuals with increase, relative to 1 at 15 minutes, collection to centrifugation, after 4 hours) turned out to be 1.79. Further, the “Rate of increase or decrease” value in data set [3] was found to be 1.33.

As for `C[C@H](CCC(=O)O)[C@H]1CC[C@H]2[C@@H]3[C@H](O)C[C@@H]4C[C@H](O)CC[C@]4(C)[C@H]3C[C@H](O)[C@]12C` [Cholic acid], the “Rate of increase or decrease” value in data set [1] (after 12 hours) is on record as 1.99; in data set [2] (freezing and thawing 10 times), 3.26; in data set [4] (6 times of freezing and thawing, detection intensity relative to 1 at 2 times) it was 0.57; in data set [3], 1.36. For the same compound, the Increase or decrease entry in data set [1] (after 12 hours vs 15 minutes) is “Increase”; in data set [2] (freezing and thawing 10 times vs 2 times) it was “Increase”; in data set [4] (serum sample, LC/MS, detection intensity vs 2 times of freezing and thawing), “Decrease”; in data set [3] it was “Increase”. Also, the “Number of times when compound is affected” value in data set [4] (serum sample, LC/MS, detection intensity changed by 30% or more vs 2 times of freezing and thawing) is 6 times.

In the case of `Nc1ccn([C@@H]2O[C@H](COP(=O)(O)O)[C@@H](O)[C@H]2O)c(=O)n1` [Cytidine monophosphate], the “Rate of increase or decrease” value in data set [1] (after 4 hours) was 1.75; in data set [2] (freezing and thawing 4 times) it was 1.98; in data set [3], 1.34. Besides, the Increase or decrease entry in data set [1] (after 4 hours vs 15 minutes), in data set [2] (setting [5]) and in data set [3] was “Increase” in each case.

Take `Nc1nc2c(ncn2[C@@H]2O[C@H](COP(=O)(O)O)[C@@H](O)[C@H]2O)c(=O)[nH]1` [Guanosine monophosphate]: the “Rate of increase or decrease” value is listed as 1.89 in data set [1] (after 4 hours); 1.95 in data set [2] (freezing and thawing 6 times). Further, the Increase or decrease entry in data set [1] (after 4 hours vs 15 minutes) is recorded as “Increase”; in data set [2] (freezing and thawing 6 times vs 2 times) it was “Increase”; in data set [3] it was “Different from individual”. In data set [3] (different from individual to individual, individuals with decrease, relative to 1 at 1 minute or less, collection to cooling 5 minutes), the “Rate of increase or decrease (second value, decrease)” value is recorded as 0.59. Also, in data set [3] (different from individual to individual, individuals with increase, relative to 1 at 1 minute or less, collection to cooling 5 minutes), the “Rate of increase or decrease (first value, increase)” value was 1.47.

Consider `C[S+](CC[C@H](N)C(=O)[O-])C[C@H]1O[C@@H](n2cnc3c(N)ncnc32)[C@H](O)[C@@H]1O` (stereo partly shown) [S-adenosylmethionine], for which the “Rate of increase or decrease” value is recorded as 0.62 in data set [1] (after 6 hours); 1.33 in data set [2] (freezing and thawing 4 times); 1.60 in data set [3]. The values for the Increase or decrease result in data set [1] (after 6 hours vs 15 minutes), in data set [2] (setting [5]) and in data set [3] were “Decrease”, “Increase” and “Increase”, respectively.
